PubChem BioAssay (NCI)
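These data come from cells grown in 96-well plates and exposed to compound for 48 hours at five concentrations. At the GI50, growth is halved. TGI marks complete inhibition of growth.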

Tests used:
Assay in all cases: NCI anticancer screen, dose series, 48 h
[1] = system: A498 renal
[2] = system: HS 578T breast
[3] = system: NCI-H23 lung
[4] = system: SR leukemia
[5] = system: 786-0 renal
[6] = system: HCT-15 colon
[7] = system: NCI-H460 lung
[8] = system: MDA-MB-231 breast
[9] = system: MDA-MB-435
[10] = system: MOLT-4 leukemia

| Compound | GI50 [1] | TGI [1] | GI50 [2] | TGI [2] | GI50 [3] | TGI [3] | GI50 [4] | TGI [4] | GI50 [5] | TGI [5] | GI50 [6] | TGI [6] | GI50 [7] | TGI [7] | GI50 [8] | TGI [8] | GI50 [9] | TGI [9] | GI50 [10] | TGI [10] |
| --- | --- | --- | --- | --- | --- | --- | --- | --- | --- | --- | --- | --- | --- | --- | --- | --- | --- | --- | --- | --- |
| CN1CCN(CCCOc2cccc3nc(Nc4ccc(Cl)c(C(F)(F)F)c4)ccc23)CC1 | 1.68 µM | 3.54 µM | 2 µM | 4.66 µM | 1.78 µM | 3.42 µM | 0.54 µM | 3.4 µM | 1.5 µM | 2.89 µM | 1.22 µM | 2.64 µM | 1.72 µM | 3.52 µM | 1.47 µM | 3.1 µM | 1.68 µM | 3.23 µM |  |  |
| Cn1c(-c2c(N)n(CCCN3CCOCC3)c3nc(C#N)c(C#N)nc23)nc2ccccc21 | 39.4 µM | 92.5 µM |  |  | 27 µM | > 81.9 µM | 2.66 µM | > 26.6 µM | 24.7 µM | > 69 µM |  | > 53.4 µM | > 42.5 µM | > 64.3 µM | 7.87 µM | > 53.1 µM | > 100 µM | > 100 µM | 6.73 µM | > 67.6 µM |
| Nc1ncnc2c1ncn2C1CC(OCc2ccccc2[N+](=O)[O-])C(CO)O1 (stereo not given) |  | > 50 µM |  |  |  | > 50 µM |  | 34.6 µM |  | > 50 µM |  | > 50 µM |  | > 50 µM |  |  |  |  |  | > 50 µM |
| O=C(COc1cccc(/C=C2\CSc3ccccc3C2=O)c1)Nc1nccs1 | 15.3 µM | 28.9 µM | 2.79 µM | 12.5 µM | 1.85 µM | 8.79 µM | 0.557 µM | 2.44 µM | 3.7 µM | 13 µM | 2.17 µM | 5 µM | 10 µM | 25.5 µM | 5.46 µM | 21.4 µM | 2.02 µM | 4.85 µM |  |  |
| c1ccc2c(c1)cc1n2CC2CN=NC12 (stereo not given) |  | > 100 µM |  |  |  |  |  | > 100 µM |  | > 100 µM |  | > 100 µM |  | > 100 µM |  |  |  |  |  | > 100 µM |
| O=C1c2ccccc2C(=O)c2c(OCCOCCO)cccc21 |  |  |  | 99.7 µM |  | > 100 µM |  | > 100 µM |  | > 100 µM |  | > 100 µM |  | > 100 µM |  | > 100 µM |  | > 100 µM |  | > 100 µM |
| COC(=O)c1ccc(NC(=O)Oc2ccc(N(CCCl)CCCl)cc2)cc1 | 3.35 µM | 14.9 µM | 18.8 µM | 97.9 µM | 4.75 µM | > 100 µM | 0.394 µM | > 100 µM | 4.95 µM | 25.6 µM | 11.2 µM | > 100 µM | 0.386 µM | 14.9 µM | 20.1 µM | > 100 µM | 11.5 µM | > 100 µM |  |  |
| O=c1[nH]cnc2c1nnn2CCCCCCCCCCCCn1nnc2c(=O)[nH]cnc21 |  | 53.6 µM |  | 60.7 µM |  | 39.2 µM |  | > 100 µM |  | 60.5 µM |  | > 100 µM |  | > 100 µM |  |  |  | > 100 µM |  | > 100 µM |
| c1ccc2c3c([nH]c2c1)C(c1ccc(C2NCCc4c2[nH]c2ccccc42)cc1)NCC3 (stereo not given) | 1.64 µM | 8.87 µM | 1.43 µM | 3.82 µM | 1.65 µM | 3.36 µM |  |  | 1.75 µM | 3.38 µM | 0.429 µM | 1.78 µM | 0.221 µM | 0.449 µM | 0.296 µM | 0.936 µM | 0.359 µM | 1.27 µM | 0.378 µM | 1.53 µM |
| c1cc2c(cn1)Nc1ccncc1S2 | 19.5 µM | 55.4 µM | 29.6 µM | > 100 µM | 43.4 µM | > 100 µM |  |  | 23.7 µM | 78.1 µM | 37.4 µM | > 100 µM | 27.8 µM | > 100 µM | 98.9 µM | > 100 µM | 73.9 µM | > 100 µM | 33.4 µM | > 100 µM |
| CC1=C(C(=O)Nc2cc(F)c(F)cc2F)C(c2ccc([N+](=O)[O-])cc2)C(C(=O)Nc2cc(F)c(F)cc2F)=C(C)N1 |  | 87.1 µM |  |  |  | > 100 µM |  |  |  | > 100 µM |  |  |  | > 100 µM |  |  |  |  |  | > 100 µM |
| Cn1nc(-c2ccccc2)c2c(/C=C/c3ccccc3)onc2c1=O |  | > 100 µM |  |  |  | > 100 µM |  | > 100 µM |  | > 100 µM |  | > 100 µM |  | > 100 µM |  |  |  |  |  | > 100 µM |
| CC(=O)C1=C(O)C2C3c4c[nH]c5cccc(c45)CC3C(C)(C)N2C1=O (stereo not given) |  | 98.2 µM |  |  |  | 64.3 µM |  |  |  | > 100 µM |  | > 100 µM |  | 31.8 µM |  |  |  |  |  | > 100 µM |
| CC1=C(Nc2ccc(N3CCN(C)CC3)cc2)C(=O)c2cncnc2C1=O |  |  | 19.5 µM | 55.1 µM | 6.26 µM | 32.7 µM | 3.22 µM | > 100 µM | 20.4 µM | 52.5 µM | 12.9 µM | 41 µM | 3.31 µM | 11.4 µM | 2.67 µM | 7.78 µM | 1.87 µM | 3.4 µM | 2.01 µM | 6.39 µM |
| CCOc1ccc(NC(=O)CC2C(=O)Nc3ccccc3S2(=O)=O)cc1 (stereo not given) |  | > 100 µM |  |  |  | > 100 µM |  | > 100 µM |  | > 100 µM |  | > 100 µM |  | > 100 µM |  |  |  |  |  | > 100 µM |
| CC(=O)OC1COC(n2c(=S)n(-c3ccccc3)c(=O)c3ccccc32)C(OC(C)=O)C1OC(C)=O (stereo not given) |  | > 100 µM |  |  |  | > 100 µM |  |  |  | > 100 µM |  | > 100 µM |  | > 100 µM |  |  |  |  |  | > 100 µM |
| C=CCc1cc(OC)c2c(c1)C(OC)CC(c1ccc(OC)c(OC)c1)O2 (stereo not given) |  | > 100 µM |  |  |  |  |  |  |  | > 100 µM |  | > 100 µM |  | > 100 µM |  |  |  |  |  | > 100 µM |
| CC1(C)C(=O)C(C)(C)C1=S |  | > 100 µM |  |  |  | > 100 µM |  | > 100 µM |  | > 100 µM |  | > 100 µM |  | > 100 µM |  |  |  |  |  | > 100 µM |
| CN1c2ccccc2N(C(=O)c2ccccc2)C(CC(=O)O)c2cccn21 (stereo not given) |  | > 100 µM |  |  |  | > 100 µM |  |  |  | > 100 µM |  | > 100 µM |  | > 100 µM |  |  |  |  |  | > 100 µM |
